System: human intestinal microsomes
Assay: Reduction in the intestinal barrier effect: simvastatin remaining after incubation with human intestinal microsomes
Conditions: 12 μmol, 1 mg/ml microsomes, 37° C.
Experimental: The test is carried out in vitro using human intestinal microsomes containing:
0.09 nmol/mg of cytochromes P450,
0.77 nmol/min/mg of cytochromes P450 3 A 4.
1 mg/ml of microsomes is then placed in contact:
with a regenerating system having the following composition:
followed by equilibration at 37° C. for 3 minutes.
100 μl aliquots are mixed with a solution of 400 μl of a 50/50 mixture of ice and acetonitrile at 0, 15, 30, 60, 120 and 180 minutes. Testosterone is tested in parallel as control component.
The conditions for carrying out the HPLC are as follows:
The mass spectrometer used is known under the reference PE SCIEX 150.

## C[C@]12CC[C@H]3[C@@H](CCC4=CC(=O)CC[C@@]43C)[C@@H]1CC[C@@H]2O [TESTOSTERONE, Testosterone]
Time 0 min
  PERCENTAGE REMAINING: 100%
Time 15 min
  PERCENTAGE REMAINING: completely disappeared
Time 180 min
  PERCENTAGE REMAINING: 0%

From patent publication US6652865B2, “Method and formulation for decreasing statin metabolism” (Gattefosse Holding, priority 2001, dated 2003)
